Results: publication PMC10557616 (bioRxiv, 2023)

Columns and labels:
Format in all cases: biochemical
Settings in all cases: phosphocreatine as phosphate donor
CKM [1] = target: T1, CKM (Homo sapiens, UniProt P06732); experiment: uHPLC-MS detection of TFV-DP
[2] = target: T2, creatine kinase U-type (CKMT1) (Homo sapiens, UniProt P12532); experiment: uHPLC-MS detection of TFV-DP
[3] = target: T2, creatine kinase U-type (CKMT1); experiment: uHPLC-MS detection of ATP
CKM [4] = target: T1, CKM; experiment: uHPLC-MS detection of ATP

T1 sequence (P06732 whole entry): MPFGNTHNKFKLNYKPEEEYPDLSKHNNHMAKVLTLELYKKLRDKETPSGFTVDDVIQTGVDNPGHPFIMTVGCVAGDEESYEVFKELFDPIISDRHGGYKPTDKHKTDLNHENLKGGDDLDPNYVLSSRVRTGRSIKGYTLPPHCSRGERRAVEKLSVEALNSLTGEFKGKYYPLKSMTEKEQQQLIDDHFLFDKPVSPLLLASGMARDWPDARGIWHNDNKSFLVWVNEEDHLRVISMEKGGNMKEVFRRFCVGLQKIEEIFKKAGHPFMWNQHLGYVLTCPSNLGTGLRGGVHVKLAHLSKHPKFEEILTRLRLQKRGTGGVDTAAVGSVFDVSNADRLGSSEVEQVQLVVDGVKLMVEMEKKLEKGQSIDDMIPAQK

| SMILES | uHPLC-MS detection of TFV-DP (CKM [1]) | uHPLC-MS detection of TFV-DP [2] | uHPLC-MS detection of ATP [3] | uHPLC-MS detection of ATP (CKM [4]) |
| --- | --- | --- | --- | --- |
| C[C@H](Cn1cnc2c(N)ncnc21)OCP(=O)(O)OP(=O)(O)O [TFV-MP] | no significant differences in TFV-DP levels between the CKM, CKB, or CKMT1 catalyzed reactions | no significant differences in TFV-DP levels between the CKM, CKB, or CKMT1 catalyzed reactions | – | – |
| Nc1ncnc2c1ncn2[C@@H]1O[C@H](COP(=O)(O)OP(=O)(O)O)[C@@H](O)[C@H]1O [ADP] | – | – | the proteins were incubated with phosphocreatine and ADP and ATP was detected by uHPLC-MS | the proteins were incubated with phosphocreatine and ADP and ATP was detected by uHPLC-MS |
